According to patent US9840498B2, “Substituted quinazolin-4-one derivatives” (NOVARTIS AG, priority 2013, dated 2017):

What was measured:
Conditions in all cases: enzymatic assay
PI3K alpha = PI3K alpha (Homo sapiens (Human), UniProt P42336); assay: Biochemical assay for PI3Kalpha (Kinase-Glo format)
Protocol: 1.1 Generation of Gene Constructs, Protein Expression and Purification
For the enzymatic assays, the preparation of PI3K gene constructs, protein expression and purification for HTS are described in WO2012/004299.
1.2 Biochemical Assays for PI3Kalpha, PI3Kbeta (Kinase-Glo Format)
The kinase reaction is performed in a final volume of 50 μl per well of a half area COSTAR, 96 well plate. The final concentrations of ATP and phosphatidyl inositol in the assay are 5 μM and 6 μg/mL, respectively. The reaction is started by the addition of PI3 kinase, e.g. PI3 kinase α.
The components of the assay are added per well as follows: • 10 μl test compound in 5% DMSO per well in […]. • Total activity is determined by addition 10 μl of 5% vol/vol DMSO in the first 4 wells of column 1 and the last 4 wells of column 12. • The background is determined by addition of 10 μM control compound to the last 4 wells of column 1 and the first 4 wells of column 12. • 2 mL ‘Assay mix’ are prepared per plate: • 1.912 mL of HEPES assay buffer • 8.33 μl of 3 mM stock of ATP giving a final concentration of 5 μM per well • 1 μl of [^33P]ATP on the activity date giving 0.05 μCi per well • 30 μl of 1 mg/mL PI stock giving a final concentration of 6 μg/mL per well • 5 μl of 1 M stock MgCl2 giving a final concentration of 1 mM per well • 20 μl of the assay mix are added per well. • 2 mL ‘Enzyme mix’ are prepared per plate (x* μl PI3 kinase p110α in 2 mL of kinase buffer). The ‘Enzyme mix’ is kept on ice during addition to the assay plates. * The volume of enzyme is dependent on the enzymatic activity of the batch in use. • 20 μl ‘Enzyme mix’ are added/well to start the reaction. • The plate is then incubated at room temperature for 90 minutes. • The reaction is terminated by the addition of 50 μl WGA-SPA bead (wheat germ agglutinin-coated Scintillation Proximity Assay beads) suspension per well. • The assay plate is sealed using TopSeal-S (heat seal for polystyrene microplates, PerkinElmer LAS [Deutschland] GmbH, Rodgau, Germany) and incubated at room temperature for at least 60 minutes. • The assay plate is then centrifuged at 1500 rpm for 2 minutes using the Jouan bench top centrifuge (Jouan Inc., Nantes, France). • The assay plate is counted using a Packard TopCount, each well being counted for 20 seconds.
In a more preferred assay, the kinase reaction is performed in a final volume of 10 μl per well of a low volume non-binding CORNING, 384 well black plate (Cat. No. #3676). The final concentrations of ATP and phosphatidyl inositol (PI) in the assay are 1 μM and 10 μg/mL, respectively. The reaction is started by the addition of ATP.
The components of the assay are added per well as follows: […]

PI3K gamma = PI3K gamma (Homo sapiens (Human), UniProt P48736); assay: Biochemical assay for PI3Kgamma (Adapta TR-FRET format)
PI3K gamma, sequence (P48736 whole entry): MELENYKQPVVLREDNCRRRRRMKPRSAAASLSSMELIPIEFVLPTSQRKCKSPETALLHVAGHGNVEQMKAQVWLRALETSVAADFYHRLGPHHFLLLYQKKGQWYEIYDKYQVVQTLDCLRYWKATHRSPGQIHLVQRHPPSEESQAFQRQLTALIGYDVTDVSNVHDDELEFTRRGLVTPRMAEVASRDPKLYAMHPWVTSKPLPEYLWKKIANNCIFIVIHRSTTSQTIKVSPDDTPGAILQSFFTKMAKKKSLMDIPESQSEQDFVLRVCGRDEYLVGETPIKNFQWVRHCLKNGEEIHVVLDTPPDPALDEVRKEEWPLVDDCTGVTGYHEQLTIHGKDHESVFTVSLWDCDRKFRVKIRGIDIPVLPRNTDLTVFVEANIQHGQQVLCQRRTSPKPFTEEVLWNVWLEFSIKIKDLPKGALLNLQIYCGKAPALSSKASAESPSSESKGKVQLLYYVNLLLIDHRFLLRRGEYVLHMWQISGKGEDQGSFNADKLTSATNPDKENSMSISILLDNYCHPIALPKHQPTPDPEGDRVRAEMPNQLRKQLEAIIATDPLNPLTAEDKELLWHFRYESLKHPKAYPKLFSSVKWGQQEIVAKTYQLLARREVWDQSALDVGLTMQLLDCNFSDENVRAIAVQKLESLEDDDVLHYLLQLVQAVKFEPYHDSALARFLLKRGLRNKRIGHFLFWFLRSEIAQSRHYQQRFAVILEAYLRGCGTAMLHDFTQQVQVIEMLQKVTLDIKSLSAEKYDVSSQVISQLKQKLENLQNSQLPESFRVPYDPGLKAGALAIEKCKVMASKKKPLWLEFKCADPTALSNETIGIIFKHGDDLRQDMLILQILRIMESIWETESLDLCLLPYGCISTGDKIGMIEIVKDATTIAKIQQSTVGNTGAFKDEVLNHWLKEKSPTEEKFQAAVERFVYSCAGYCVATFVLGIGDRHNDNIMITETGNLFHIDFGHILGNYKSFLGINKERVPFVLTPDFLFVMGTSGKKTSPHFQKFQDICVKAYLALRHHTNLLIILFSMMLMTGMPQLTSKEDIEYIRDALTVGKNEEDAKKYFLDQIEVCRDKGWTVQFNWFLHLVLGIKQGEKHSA
From the text: (§1) For the enzymatic assays, the preparation of PI3K gene constructs, protein expression and purification for HTS are described in WO2012/004299. […] The TR-FRET Adapta™ Universal Kinase Assay Kit was purchased from Invitrogen Corporation (Carlsbad/CA, USA) (Cat. No. PV5099). The kit contains the following reagents: Adapta Eu-anti-ADP Antibody (Europium labeled anti-ADP antibody in HEPES buffered saline, Cat. No. PV5097), Alexa Fluor® 647-labeled ADP tracer (Alexa Fluor® 647-labeled ADP tracer in HEPES buffered saline, Cat. No. PV5098), proprietary TR-FRET dilution buffer pH 7.5 (Cat. No. PV3574). PIK3CD substrate Phosphatidylinositol was obtained from Invitrogen (vesicules consisting of 2 mM PI in 50 mM HEPES pH7.5; Cat. No. PV5371). PIK3CG substrate Phosphatidylinositol-4,5-bisphosphate (PIP(4,5)2 was obtained from Invitrogen (PIP2:PS large unilamellar vesicules consisting of 1 mM PI P2: 19 mM PS in 50 mM HEPES pH7.5, 3 mM MgCl2, 1 mM EGTA; Cat. No. PV5100). Time-Resolved Fluorescence Resonance Energy Transfer (TR-FRET) is a technology based on energy transfer between two adjacent dyes, from an excited electron in one dye (the donor) to an electron of an adjacent dye (the acceptor) through resonance, then released as a photon. This energy transfer is detected by an increase in the fluorescence emission of the acceptor, and a decrease in the fluorescence emission of the donor. TR-FRET assays for protein kinases use a long-lifetime lanthanide Terbium or Europium chelates as the donor species which overcome interference from compound autofluorescence or light scatter from precipitated compounds, by introducing a delay after excitation by a flashlamp excitation source. Results are often expressed as a ratio of the intensities of the acceptor and donor fluorophores. The ratiometric nature of such a value corrects for differences in assay volumes between wells, as well as corrects for quenching effects due to colored compounds. The Adapta™ assay can be divided into two phases: a kinase reaction phase and an ADP detection phase. In the kinase reaction phase, all kinase reaction components are added to the well and the reaction is allowed to incubate for a set period of time specific for each kinase. After the reaction, a detection solution of Eu-labeled anti-ADP antibody, Alexa Fluor® 647-labeled ADP tracer, and EDTA (to stop the kinase reaction) are added to the assay well. ADP formed by the kinase reaction will displace the Alexa Fluor® 647-labeled ADP tracer from the antibody, resulting in a decrease in TR-FRET signal. In the presence of an inhibitor, the amount of ADP formed by the kinase reaction is reduced, and the resulting intact antibody-tracer interaction maintains a high TR-FRET signal. In the Adapta™ assay, the donor (Europium-anti-ADP antibody) is excited at 340 nm and will transfer its energy to the acceptor (Alexa Fluor® 647-labeled ADP tracer). The emission from the Alexa Fluor® 647 can be monitored with a filter centered at 665 nm because it is located between the emission peaks of the donor, which is measured at 615/620 nm. 50 nL of compound dilutions were dispensed onto white 384-well small volume polystyrene plate as described in section 2.2. Then 5 μL of PI3Kgamma and PI3Kdelta and lipid substrate (PI or PIP2:PS) followed by 5 μL of ATP (final assay volume 10 μL) are incubated at RT. […] Reactions were stopped with 5 μL of a mixture of EDTA containing the Eu-labeled anti-ADP antibody and the Alexa Fluor® 647-labeled ADP tracer in TR-FRET dilution buffer (proprietary to IVG). Plates are read 15 to 60 mins later in a Synergy2 reader using an integration time of 0.4 seconds and a delay of 0.05 seconds. […] The control for the 0% inhibition was given by the solvent vehicle of the compounds (90% DMSO in H2O). Data are analyzed using Excel fit software or Graphpad Prism. EC50 values were derived by fitting a sigmoidal dose-response curve to a plot of assay readout over inhibitor concentration. […]

PI3K delta = PI3K delta (Homo sapiens (Human), UniProt O00329); assay: Biochemical assay for PI3Kdelta (Adapta TR-FRET format)
PI3K delta, sequence (O00329 2-1044): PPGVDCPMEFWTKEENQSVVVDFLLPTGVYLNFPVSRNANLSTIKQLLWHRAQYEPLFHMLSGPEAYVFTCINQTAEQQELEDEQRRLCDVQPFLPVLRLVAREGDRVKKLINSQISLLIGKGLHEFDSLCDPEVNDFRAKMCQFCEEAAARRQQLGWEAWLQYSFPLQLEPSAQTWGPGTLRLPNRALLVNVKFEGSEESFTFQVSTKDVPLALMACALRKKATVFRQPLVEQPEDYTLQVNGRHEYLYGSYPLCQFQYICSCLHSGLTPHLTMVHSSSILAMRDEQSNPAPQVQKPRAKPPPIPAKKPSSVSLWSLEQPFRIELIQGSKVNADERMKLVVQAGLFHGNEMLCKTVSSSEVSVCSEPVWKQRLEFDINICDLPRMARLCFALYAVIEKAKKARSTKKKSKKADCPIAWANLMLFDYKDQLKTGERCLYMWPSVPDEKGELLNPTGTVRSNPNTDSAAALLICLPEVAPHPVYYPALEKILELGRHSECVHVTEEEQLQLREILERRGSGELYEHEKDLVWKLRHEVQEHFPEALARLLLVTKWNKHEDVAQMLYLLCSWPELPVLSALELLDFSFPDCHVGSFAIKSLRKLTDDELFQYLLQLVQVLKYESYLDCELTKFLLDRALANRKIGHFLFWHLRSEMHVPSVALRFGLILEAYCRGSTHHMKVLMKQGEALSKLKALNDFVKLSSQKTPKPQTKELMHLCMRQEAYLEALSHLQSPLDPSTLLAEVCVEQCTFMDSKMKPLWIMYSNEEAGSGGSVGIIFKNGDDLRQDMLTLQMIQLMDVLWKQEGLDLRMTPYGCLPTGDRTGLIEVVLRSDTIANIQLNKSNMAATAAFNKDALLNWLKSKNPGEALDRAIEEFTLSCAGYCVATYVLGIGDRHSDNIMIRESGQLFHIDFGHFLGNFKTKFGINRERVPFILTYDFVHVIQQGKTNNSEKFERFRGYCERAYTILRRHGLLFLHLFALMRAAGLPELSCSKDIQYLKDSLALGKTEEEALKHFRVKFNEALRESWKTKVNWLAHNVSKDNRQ
PI3K delta, sequence (P27986 461-568 partner): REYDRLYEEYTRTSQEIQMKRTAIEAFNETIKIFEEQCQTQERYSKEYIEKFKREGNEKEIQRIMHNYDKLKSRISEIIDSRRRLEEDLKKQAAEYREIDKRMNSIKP
From the text: as §1

PI3K alpha, sequence (P42336 21-1068): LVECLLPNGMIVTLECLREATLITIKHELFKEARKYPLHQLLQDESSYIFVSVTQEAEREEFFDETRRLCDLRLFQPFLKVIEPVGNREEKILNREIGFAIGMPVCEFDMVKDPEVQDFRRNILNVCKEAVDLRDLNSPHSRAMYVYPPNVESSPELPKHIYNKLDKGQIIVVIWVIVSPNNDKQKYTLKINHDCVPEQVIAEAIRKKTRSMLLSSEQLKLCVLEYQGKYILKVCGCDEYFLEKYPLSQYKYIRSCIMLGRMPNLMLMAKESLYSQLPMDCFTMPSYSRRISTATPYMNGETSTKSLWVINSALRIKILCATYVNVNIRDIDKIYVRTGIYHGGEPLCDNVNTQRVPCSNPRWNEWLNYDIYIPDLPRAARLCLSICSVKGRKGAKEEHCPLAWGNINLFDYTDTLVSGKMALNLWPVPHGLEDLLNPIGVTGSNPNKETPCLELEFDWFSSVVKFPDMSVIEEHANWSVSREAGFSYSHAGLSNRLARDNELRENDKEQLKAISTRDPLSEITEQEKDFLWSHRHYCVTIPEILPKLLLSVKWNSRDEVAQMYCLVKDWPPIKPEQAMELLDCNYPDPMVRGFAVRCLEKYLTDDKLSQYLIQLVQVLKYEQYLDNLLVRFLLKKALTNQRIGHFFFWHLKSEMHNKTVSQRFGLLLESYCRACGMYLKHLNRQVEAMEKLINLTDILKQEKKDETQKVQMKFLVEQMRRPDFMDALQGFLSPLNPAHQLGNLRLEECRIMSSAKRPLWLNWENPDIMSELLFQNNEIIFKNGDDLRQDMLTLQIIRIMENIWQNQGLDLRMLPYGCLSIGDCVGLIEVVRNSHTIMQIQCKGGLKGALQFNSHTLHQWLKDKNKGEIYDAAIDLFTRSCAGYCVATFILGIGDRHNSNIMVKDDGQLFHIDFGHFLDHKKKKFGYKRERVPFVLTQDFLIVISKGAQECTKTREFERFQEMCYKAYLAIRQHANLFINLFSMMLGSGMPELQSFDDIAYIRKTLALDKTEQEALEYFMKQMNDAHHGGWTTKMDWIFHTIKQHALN
PI3K alpha, sequence (P27986 461-568 partner): as the sequence (P27986 461-568 partner) above

| Compound | IC50 (PI3K alpha) [nM] | IC50 (PI3K gamma) [nM] | IC50 (PI3K delta) [nM] |
| --- | --- | --- | --- |
| Cc1ccccc1-n1c([C@@H]2CCCN2c2ncnc(N)c2C#N)nc2cccc(-c3cnn(C)c3)c2c1=O [Example 14, (S)-4-Amino-6-(2-(5-(1-methyl-1H-pyrazol-4-yl)-4-oxo-3-(otolyl)-3,4-dihydroquinazolin-2-yl)pyrrolidin-1-yl)pyrimidine-5-carbonitrile] | 920 | 330 | 74 |
| Cn1cnc(-c2cccc3nc([C@@H]4CCCN4c4ncnc(N)c4C#N)n(-c4ccccc4)c(=O)c23)c1 [Example 15, (S)-4-Amino-6-(2-(5-(1-methyl-1H-imidazol-4-yl)-4-oxo-3-phenyl-3,4-dihydroquinazolin-2-yl)pyrrolidin-1-yl)pyrimidine-5-carbonitrile] | > 10000 | > 10000 | > 10000 |
| Cc1nc(N)nc(N2C[C@@H](O)C[C@H]2c2nc3cccc(-c4cnn(C)c4)c3c(=O)n2-c2ccccc2)c1C#N [Example 16, 2-Amino-4-((2S,4S)-4-hydroxy-2-(5-(1-methyl-1H-pyrazol-4-yl)-4-oxo-3-phenyl-3,4-dihydroquinazolin-2-yl)pyrrolidin-1-yl)-6-methylpyrimidine-5-carbonitrile] | 180 | 48 | 7 |
| Cc1ncc(-c2cccc3nc([C@@H]4CCCN4c4nc(N)nc(C)c4C#N)n(-c4ccccc4)c(=O)c23)cn1 [Example 19, (S)-2-Amino-4-methyl-6-(2-(5-(2-methylpyrimidin-5-yl)-4-oxo-3-phenyl-3,4-dihydroquinazolin-2-yl)pyrrolidin-1-yl)pyrimidine-5-carbonitrile] | 820 | 390 | 17 |
| COc1ncc(-c2cccc3nc([C@@H]4C[C@H](O)CN4c4nc(N)nc(C)c4C#N)n(-c4ccccc4)c(=O)c23)cn1 [Example 22, 2-Amino-4-((2S,4S)-4-hydroxy-2-(5-(2-methoxypyrimidin-5-yl)-4-oxo-3-phenyl-3,4-dihydroquinazolin-2-yl)pyrrolidin-1-yl)-6-methylpyrimidine-5-carbonitrile] | 580 | 130 | 5 |
| COc1cncc(-c2cccc3nc([C@@H]4C[C@H](O)CN4c4nc(N)nc(C)c4C#N)n(-c4ccccc4)c(=O)c23)c1 [Example 25, 2-Amino-4-((2S,4S)-4-hydroxy-2-(5-(5-methoxypyridin-3-yl)-4-oxo-3-phenyl-3,4-dihydroquinazolin-2-yl)pyrrolidin-1-yl)-6-methylpyrimidine-5-carbonitrile] | 48 | 65 | 5 |
| Cc1nc(N)nc(N2C[C@@H](O)C[C@H]2c2nc3cccc(-c4cncnc4)c3c(=O)n2-c2ccccc2)c1C#N [Example 26, 2-Amino-4-((2S,4S)-4-hydroxy-2-(4-oxo-3-phenyl-5-(pyrimidin-5-yl)-3,4-dihydroquinazolin-2-yl)pyrrolidin-1-yl)-6-methylpyrimidine-5-carbonitrile] | 530 | 410 | 6 |

Now from value to molecule:

| IC50 (PI3K alpha) [nM] | IC50 (PI3K gamma) [nM] | IC50 (PI3K delta) [nM] | Compound |
| --- | --- | --- | --- |
| 260 | 120 | 7 | Cc1nc(N)nc(N2CCC[C@H]2c2nc3cccc(-c4cnn(C)c4)c3c(=O)n2-c2ccccc2)c1C#N [Example 13, (S)-2-Amino-4-methyl-6-(2-(5-(1-methyl-1H-pyrazol-4-yl)-4-oxo-3-phenyl-3,4-dihydroquinazolin-2-yl)pyrrolidin-1-yl)pyrimidine-5-carbonitrile] |
| 1200 | 940 | 21 | Cc1nc(N)nc(N2CCC[C@H]2c2nc3cccc(-c4cncnc4)c3c(=O)n2-c2ccccc2)c1C#N [Example 17, (S)-2-Amino-4-methyl-6-(2-(4-oxo-3-phenyl-5-(pyrimidin-5-yl)-3,4-dihydroquinazolin-2-yl)pyrrolidin-1-yl)pyrimidine-5-carbonitrile] |
| 56 | 89 | 14 | COc1cncc(-c2cccc3nc([C@@H]4CCCN4c4nc(N)nc(C)c4C#N)n(-c4ccccc4)c(=O)c23)c1 [Example 18, (S)-2-Amino-4-(2-(5-(5-methoxypyridin-3-yl)-4-oxo-3-phenyl-3,4-dihydroquinazolin-2-yl)pyrrolidin-1-yl)-6-methylpyrimidine-5-carbonitrile] |
| 260 | 140 | 15 | Cc1nc(N)nc(N2CCC[C@H]2c2nc3cccc(-c4cccnc4)c3c(=O)n2-c2ccccc2)c1C#N [Example 20, (S)-2-Amino-4-methyl-6-(2-(4-oxo-3-phenyl-5-(pyridin-3-yl)-3,4-dihydroquinazolin-2-yl)pyrrolidin-1-yl)pyrimidine-5-carbonitrile] |
| 260 | 270 | 24 | COc1ccc(-c2cccc3nc([C@@H]4CCCN4c4nc(N)nc(C)c4C#N)n(-c4ccccc4)c(=O)c23)cn1 [Example 21, (S)-2-Amino-4-(2-(5-(6-methoxypyridin-3-yl)-4-oxo-3-phenyl-3,4-dihydroquinazolin-2-yl)pyrrolidin-1-yl)-6-methylpyrimidine-5-carbonitrile] |
| 170 | 81 | 5 | Cc1nc(N)nc(N2C[C@@H](O)C[C@H]2c2nc3cccc(-c4cccnc4)c3c(=O)n2-c2ccccc2)c1C#N [Example 24, 2-Amino-4-((2S,4S)-4-hydroxy-2-(4-oxo-3-phenyl-5-(pyridin-3-yl)-3,4-dihydroquinazolin-2-yl)pyrrolidin-1-yl)-6-methylpyrimidine-5-carbonitrile] |
